Assay results as given in paper PMC6081452, “Downstream Products are Potent Inhibitors of the Heparan Sulfate 2-O-Sulfotransferase” (Scientific Reports, 2018).
“Also recorded” adds a separate entry of the source.

Tests used:
[1] = molecular target: T1, glyc-HS2ST (glycosylated human HS2ST), WT (Homo sapiens, UniProt Q7LGA3); assay: BLI equilibrium binding, glyc-HS2ST WT; settings: BLI saturation binding curves, biotin-PEG4-linked hexasaccharide immobilised on sensor, n = 3, ± standard error of fit, 25 °C, PBS pH 7.8
T1 construct: the human HS2ST catalytic domain region comprising of 328 amino acid residues; His8 (N, cleaved yes); AviTag (N, cleaved yes); superfolder GFP (N, cleaved yes); made in house; host or cells: HEK293-F (transient transfection, secreted)
T1 sequence (Q7LGA3 29-356 limits assumed): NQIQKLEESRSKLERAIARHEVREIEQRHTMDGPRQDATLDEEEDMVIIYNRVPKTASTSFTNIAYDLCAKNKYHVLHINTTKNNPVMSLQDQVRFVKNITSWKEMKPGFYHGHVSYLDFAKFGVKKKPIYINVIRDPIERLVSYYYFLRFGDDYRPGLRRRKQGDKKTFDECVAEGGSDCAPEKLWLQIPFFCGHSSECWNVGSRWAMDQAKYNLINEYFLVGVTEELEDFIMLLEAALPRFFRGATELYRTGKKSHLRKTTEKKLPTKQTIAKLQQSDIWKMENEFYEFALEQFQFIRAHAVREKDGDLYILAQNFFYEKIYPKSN
Excerpt: HS-protein binding studies often utilize biologically-derived oligosaccharides of heterogeneous length and sulfation[34],[35]; however, the synthesis of oligosaccharides with defined length and specific sulfation patterns has recently become possible. We employed biolayer interferometry (BLI) to determine equilibrium surface binding constants (KD) for HS2ST with synthetic HS hexasaccharides (Fig. 1 and Supplementary Table 1). The HS compounds were attached to the BLI biosensor surface to conserve sample and to ensure a significant signal upon protein binding. The HS compounds contained a biotinylated PEG4 linker at the reducing terminus, enhancing the likelihood of a consistent presentation of the linear glycan on the sensor surface, in contrast to immobilizations via intra-chain modifications. […]
An expression construct was generated encoding the truncated catalytic domain of human HS2ST as an NH2-terminal fusion protein in the pGEn2 expression vector essentially as described in prior studies. […] The recombinant human HS2ST was expressed as a soluble secreted protein by transient transfection of suspension culture HEK293-F cells (FreeStyle^TM 293-Fcells, Thermo Fisher Scientific, Waltham MA) maintained at 0.5–3.0 × 10^6 cells/ml in a humidified CO2 platform shaker incubator at 37 °C with 55% humidity. […]

[2] = molecular target: T2, non-glyc-HS2ST (non-glycosylated chicken HS2ST), WT (Gallus gallus, UniProt Q76KB1); assay: BLI equilibrium binding, non-glyc-HS2ST WT; settings: BLI saturation binding curves, biotin-PEG4-linked hexasaccharide on sensor, n = 3, ± standard error of fit; — = response too weak to fit
T2 construct: made in house; host or cells: E. coli Origami B (DE3)
T2 sequence (Q76KB1 69-356 limits assumed): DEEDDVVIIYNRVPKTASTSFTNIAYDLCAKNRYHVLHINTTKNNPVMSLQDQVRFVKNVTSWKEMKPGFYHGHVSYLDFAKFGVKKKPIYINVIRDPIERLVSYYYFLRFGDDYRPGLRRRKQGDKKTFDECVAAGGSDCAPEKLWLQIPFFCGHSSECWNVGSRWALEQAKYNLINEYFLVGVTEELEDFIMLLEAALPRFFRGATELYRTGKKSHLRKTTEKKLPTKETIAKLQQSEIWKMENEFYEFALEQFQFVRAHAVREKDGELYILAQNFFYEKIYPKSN
Excerpt: HS-protein binding studies often utilize biologically-derived oligosaccharides of heterogeneous length and sulfation[34],[35]; however, the synthesis of oligosaccharides with defined length and specific sulfation patterns has recently become possible. We employed biolayer interferometry (BLI) to determine equilibrium surface binding constants (KD) for HS2ST with synthetic HS hexasaccharides (Fig. 1 and Supplementary Table 1). The HS compounds were attached to the BLI biosensor surface to conserve sample and to ensure a significant signal upon protein binding. The HS compounds contained a biotinylated PEG4 linker at the reducing terminus, enhancing the likelihood of a consistent presentation of the linear glycan on the sensor surface, in contrast to immobilizations via intra-chain modifications.
Binding constants were collected for two isoforms of the enzyme; a glycosylated human variant (glyc-HS2ST) expressed in mammalian cell lines, and a highly homologous (96% identity) non-glycosylated chicken isoform expressed in E. coli (non-glyc-HS2ST). […] Thus, the enhanced ligand affinity seen in HS2ST was unexpected and may relate to the specific position of the glycosylation site (N108)[41].
The chicken HS2ST-Maltose Binding Protein (MBP) fusion protein was expressed and purified according to previous studies. The fusion protein was transformed into E. coli Origami B (DE3) cells, cultured at 37 °C until OD600 reached 0.5, then induced with isopropyl-β-D-thiogalactopyranoside and allowed to grow overnight at 20 °C. Cells were sonicated, followed by a two-step purification procedure. Whole-cell supernatant was passed through an amylose column with Tris buffer (25 mM Tris, 500 mM NaCl, pH 7.5). An elution buffer consisted of Tris Buffer with 40 mM Maltose. The amylose column eluent was concentrated and loaded on a Superdex 200 Increase 10/300 GL with PBS buffer (10 mM sodium phosphate, 150 mM NaCl, pH 7.8) to separate trimeric protein from aggregate and independent MBP (Supplementary Fig. 4). All reported mutations formed homotrimeric complexes according to the SEC profiles, including the negative control (NC = R189A/R80E/R184E). Protein concentration was assessed via UV at 280 nm (MW of trimer ~210 KDa, extinction coefficient ~119,000 M^−1 cm^−1 according to ExPASy ProtParam webtool[56]). The trimeric protein preparation was adjusted to 5% glycerol and stored at −20 °C until use. Additional non-glyc-HS2ST constructs were created with the Q5® Mutagenesis kit (New England Biolabs Inc.; cat. # E0554S) and sequenced at the Georgia Genomics Facility at the University of Georgia.
The Octet® RED96 system (FortéBio Inc.) was employed to detect the affinity of the enzymes for specific HS targets. Due to the small size of the glycan and the deep HS2ST binding cavity, the glycan and protein were treated as ligand and analyte, respectively. Varyingly sulfated HS fragments conjugated to biotin linkers were purchased from Glycan Therapeutics Inc. with purities greater than 93% according to HPLC (sequences located in Supplementary Table 1). The glycans were immobilized onto streptavidin (SA) labeled biosensors (FortéBio; cat. #18–5019) at 0.5 µg/mL. Experiments were performed at 25 °C in PBS Buffer (10 mM sodium phosphate, 150 mM NaCl, pH 7.8) with a final concentration of 1X Pall Kinetics buffer (FortéBio Inc; cat. #18–1092). Fresh biosensors and protein samples were used for each measurement (no regeneration step). […]

## GlcNS-GlcA-GlcNS-IdoA-GlcNS-GlcA~ [Compound 1]
[1]
  Equilibrium KD, WT glyc-HS2ST: too weak to measure
[2]
  Equilibrium KD, WT non-glyc-HS2ST: too weak to measure; also recorded: insufficient for KD determination
